Counter-ions that a name gives are not always drawn.
Biological target: lactate dehydrogenase A (LDH-A) (Homo sapiens, UniProt P00338)
Assay: biochemical
Protocol: Assay buffer (50 mM potassium phosphate, pH 7.0, 50 mM NaCl, 0.25 mM CHAPS, 0.0025% BSA) is added to one column of a standard assay plate stamped with DMSO solutions of test compounds. A solution of LDH-A and NAD+ (final concentrations: 300 pM LDH-A and 150 uM NAD+) in assay buffer is added to remaining plate wells containing DMSO solutions of test compounds and DMSO only control wells and the mixtures incubated for 10 min at room temperature. A solution of lactate, resazurin, diaphorase (final concentrations: 2 mM lactate, 6.25 uM resazurin, 0.4 U/mL diaphorase) in assay buffer is added to all wells and the mixtures incubated for 30 min at room temperature. Stop solution (2 uL, components: assay buffer and 25 mM oxamate) is added to each well and the fluoresecence intensity increase (FLINT) measured at 590 nm on a ViewLux®imager.

`COc1ncc(-c2ccc3c(Nc4cc(C(=O)O)cc(C(C)C(C)C)c4)c(C(N)=O)cnc3c2)c(OC)n1` (stereo not shown) [Example 60, 3-({3-(aminocarbonyl)-7-[2,4-bis(methyloxy)-5-pyrimidinyl]-4-quinolinyl}amino)-5-(1,2-dimethylpropyl)benzoic acid, acetate salt] showed an IC50 of 63.1 nM.

From patent US20130225524A1, “Chemical Compounds” (priority 2010, published 2013)
